From US20110281726A1, “GLEDITSIA AMORPHOIDES SEEDLESS POD EXTRACT AND ITS USE AS AN AGRICULTURAL ADJUVANT” (IDEASUPPLY.COM ARGENTINA S.A., priority 2005, published 2011)

Legend:
Type in all cases: in vivo
[1] = test system: alfalfa (Medicago Sativa L.); test: Influence of CU co-adjuvant on the activity of defoliant Paraquat in alfalfa; details: Paraquat 1 l/ha, CU 0.25% v/v, emulsion oil 1% v/v, five days after treatment, day-night temperatures 30/21° C.
Procedure: Another application with agrochemicals was conducted by assessing the influence of the “CU” co-adjuvant of the invention on the activity of defoliant “Paraquat” in alfalfa (Medicago Sativa L.)
For such purpose, the effect of the addition of the surfactant Coronillo Ultra (CU) at 0.25% v/v and emulsion oil at 1% v/v to defoliant Paraquat at a 1 l/ha concentration, in conditions of high and low temperatures during both the day and at night on alfalfa was assessed.

[2] = test system: leafmining moth (Phyllocnistis Citrella Stainton); test: Control of leafmining moth: injection into tunnels and application on foliar surface
Excerpt: Efficacy of “avemectin” and the CU co-adjuvant of the invention to control leafmining moth (Phyllocnistis Citrella Stainton.)
Two assays were designed in order to assess the effect of two concentrations of the Coronillo Ultra surfactant and combinations of both products to control leafmining moth in citrus (Phyllocnistis Citrella Stainton.)
One of the assays was geared to testing the action of the direct contact of the products, both pure and in mixtures, with the larvae of the second and third stages by injecting the solution into the tunnels. The second assay aimed at assessing the effect of its application on the foliar surface affected with tunnels. In both assays, methylene blue dye was used as tracer to assess the flow of the solution inside the tunnel and the larvae.
In the treatments applied over the foliar surface, effects were noticed only when the active penetrated the epidermis and came into contact with the insect inside the tunnel.

[3] = test system: leafmining moth (Phyllocnistis Citrella Stainton); test: Control of leafmining moth: field test in a five-year vegetable garden
Procedure: Finally, the above treatments were tested on the field, in a five-year vegetable garden.

| Molecule | defoliation [1] [%] | effect of avemectin applied over the foliar surface ([2]; high concentrations) | effect of avemectin when injected ([2]; low doses) | control percentage after 14 days [3] |
| --- | --- | --- | --- | --- |
| C[n+]1ccc(-c2cc[n+](C)cc2)cc1 [Paraquat] | 17 |  |  |  |
| avemectin |  | effective | same effect | low control percentage |
